Experimental data from patent US6737383B1, “Herbicidal oxadiazolidines” (priority 1999, dated 2004).

How the values were obtained:
bedstraw = test: Test B pre/postemergence bedstraw; format: in vivo, Galium aparine
In short: (§1)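 Test chemicals in a non-phytotoxic solvent mixture with surfactant were sprayed preemergence onto planted seeds and postemergence onto plants 2 to 18 cm tall (1- to 4-leaf stage). After twelve to sixteen days in a greenhouse, injury was visually rated against untreated controls from 0 (no effect) to 10 (complete control).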

cocklebur = test: Test B pre/postemergence cocklebur; format: in vivo, Xanthium strumarium
In short: as §1

crabgrass = test: Test B pre/postemergence crabgrass; format: in vivo, Digitaria sanguinalis
In short: as §1

wild oat = test: Test B pre/postemergence wild oat; format: in vivo, Avena fatua
In short: as §1

purple nutsedge = test: Test B pre/postemergence purple nutsedge; format: in vivo, Cyperus rotundus
In short: as §1

blackgrass = test: Test B pre/postemergence blackgrass; format: in vivo, Alopecurus myosuroides
In short: as §1

smallflower flatsedge = test: Test B flood test smallflower flatsedge; format: in vivo, Cyperus difformis
In short: (§2)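 Each value is a visual injury score relative to controls, with 10 meaning complete control and 0 no effect. Evaluation took place twelve to sixteen days after the 2-leaf-stage plants were treated and kept in the greenhouse.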

surinam grass = test: Test B pre/postemergence surinam grass; format: in vivo, Brachiaria decumbens
In short: as §1

rice = test: Test B flood test rice; format: in vivo, Oryza sativa
In short: as §2

bamyardgrass = test: Test B flood test barnyardgrass; format: in vivo, Echinochloa crus-galli
In short: as §2

sugar beet = test: Test B pre/postemergence sugar beet; format: in vivo, Beta vulgaris
In short: as §1

duck salad = test: Test B flood test duck salad; format: in vivo, Heteranthera limosa
In short: as §2

soybean = test: Test B pre/postemergence soybean; format: in vivo, Glycine max
In short: as §1

velvetleaf = test: Test B pre/postemergence velvetleaf; format: in vivo, Abutilon theophrasti
In short: as §1

wheat = test: Test B pre/postemergence wheat; format: in vivo, Triticum aestivum
In short: as §1

corn = test: Test B pre/postemergence corn; format: in vivo, Zea mays
In short: as §1

[1] = Postemergence, Rate 125 g/ha, scale of 0 to 10 where 0 is no effect and 10 is complete control
[2] = Preemergence, Rate 62 g/ha, scale 0 to 10 (0 no effect, 10 complete control)
[3] = Preemergence, Rate 125 g/ha, 0 is no effect, 10 is complete control
[4] = Preemergence, Rate 250 g/ha, scale 0 to 10, 0 is no effect, 10 is complete control
[5] = Preemergence, Rate 500 g/ha, scale 0 to 10 (0 no effect, 10 complete control)
[6] = Rate 62 g/ha, Postemergence, scale of 0 to 10 where 0 is no effect and 10 is complete control
[7] = Rate 250 g/ha, Postemergence, scale 0 to 10, 0 is no effect, 10 is complete control
[8] = Rate 500 g/ha, Postemergence, scale 0 to 10
[9] = Postemergence (flood test species), Rate 125 g/ha, scale of 0 to 10 where 0 is no effect and 10 is complete control
[10] = Rate 62 g/ha, Postemergence section, flood test species, scale of 0 to 10 where 0 is no effect and 10 is complete control
[11] = Rate 250 g/ha, Postemergence (flood test), scale 0 to 10, 0 is no effect, 10 is complete control
[12] = Rate 500 g/ha, listed under Postemergence (flood test species), scale 0 to 10

For `CC(C)N(C(=O)n1oc(=O)n(Cc2ccccc2Cl)c1=O)C1=CCCCC1` [Compound 145], the “Bedstraw plant response rating” value (bedstraw; [1]) was 2, the “Bedstraw plant response rating” value (bedstraw; [2]) was 0 and the “Bedstraw plant response rating (0 to 10 scale)” value (bedstraw; [3]) was 0. The “Bedstraw plant response rating” value (bedstraw; [4]) was 0, the “Bedstraw plant response rating” value (bedstraw; [5]) was 4 and the “Bedstraw plant response rating” value (bedstraw; [6]) was 0. For the same compound, the “Plant response rating, Bedstraw” value (bedstraw; [7]) was 3, the “Bedstraw plant response rating” value (bedstraw; Rate 500 g/ha, Postemergence, scale 0 to 10, 0 no effect, 10 complete control) was 5 and the “Cocklebur plant response rating” value (cocklebur; [1]) was 0. For the same compound, the “Cocklebur plant response rating” value (cocklebur; [2]) was 0, the “Cocklebur plant response rating (0 to 10 scale)” value (cocklebur; [3]) was 0 and the “Cocklebur plant response rating” value (cocklebur; [4]) was 0. The “Cocklebur plant response rating” value (cocklebur; [5]) was 0, the “Cocklebur plant response rating” value (cocklebur; [6]) was 0 and the “Plant response rating, Cocklebur” value (cocklebur; [7]) was 0. For the same compound, the “Cocklebur plant response rating” value (cocklebur; [8]) was 0, the “Crabgrass plant response rating” value (crabgrass; [1]) was 3 and the “Crabgrass plant response rating” value (crabgrass; [2]) was 0. The “Crabgrass plant response rating (0 to 10 scale)” value (crabgrass; [3]) was 4, the “Crabgrass plant response rating” value (crabgrass; [4]) was 4 and the “Crabgrass plant response rating” value (crabgrass; [5]) was 8. The “Crabgrass plant response rating” value (crabgrass; [6]) was 2, the “Plant response rating, Crabgrass” value (crabgrass; [7]) was 8 and the “Crabgrass plant response rating” value (crabgrass; [8]) was 8. The “Wild oats plant response rating” value (wild oat; [1]) was 0, the “Wild oats plant response rating” value (wild oat; [2]) was 0 and the “Wild oats plant response rating (0 to 10 scale)” value (wild oat; [3]) was 0. The “Wild oats plant response rating” value (wild oat; [4]) was 0, the “Wild oats plant response rating” value (wild oat; [5]) was 3 and the “Wild oats plant response rating” value (wild oat; [6]) was 0. The “Plant response rating, Wild oats” value (wild oat; [7]) was 0, the “Wild oats plant response rating” value (wild oat; [8]) was 2 and the “Nutsedge plant response rating” value (purple nutsedge; [1]) was 0. The “Nutsedge plant response rating” value (purple nutsedge; [2]) was 0, the “Nutsedge plant response rating (0 to 10 scale)” value (purple nutsedge; [3]) was 0 and the “Nutsedge plant response rating” value (purple nutsedge; [4]) was 0. The “Nutsedge plant response rating” value (purple nutsedge; [5]) was 0, the “Nutsedge plant response rating” value (purple nutsedge; [6]) was 0 and the “Plant response rating, Nutsedge” value (purple nutsedge; [7]) was 0. For the same compound, the “Nutsedge plant response rating” value (purple nutsedge; [8]) was 0, the “Blackgrass plant response rating” value (blackgrass; [1]) was 1 and the “Blackgrass plant response rating” value (blackgrass; [2]) was 0. The “Blackgrass plant response rating (0 to 10 scale)” value (blackgrass; [3]) was 1, the “Blackgrass plant response rating” value (blackgrass; [4]) was 4 and the “Blackgrass plant response rating” value (blackgrass; [5]) was 7. For the same compound, the “Blackgrass plant response rating” value (blackgrass; [6]) was 0, the “Plant response rating, Blackgrass” value (blackgrass; [7]) was 5 and the “Blackgrass plant response rating” value (blackgrass; [8]) was 6. The “S. Flatsedge plant response rating” value (smallflower flatsedge; [9]) was 0, the “S. Flatsedge plant response rating” value (smallflower flatsedge; [10]) was 0 and the “Plant response rating, S. Flatsedge” value (smallflower flatsedge; [11]) was 5. For the same compound, the “S. Flatsedge plant response rating” value (smallflower flatsedge; [12]) was 8, the “B. signalgrass plant response rating” value (surinam grass; [1]) was 0 and the “B. signalgrass plant response rating” value (surinam grass; [2]) was 0. For the same compound, the “B. signalgrass plant response rating (0 to 10 scale)” value (surinam grass; [3]) was 0, the “B. signalgrass plant response rating” value (surinam grass; [4]) was 3 and the “B. signalgrass plant response rating” value (surinam grass; [5]) was 5. The “B. signalgrass plant response rating” value (surinam grass; [6]) was 0, the “Plant response rating, B. signalgrass” value (surinam grass; [7]) was 0 and the “B. signalgrass plant response rating” value (surinam grass; Rate 500 g/ha, Postemergence, scale of 0 to 10 where 0 is no effect and 10 is complete control) was 2. The “Rice plant response rating” value (rice; [9]) was 0, the “Rice plant response rating” value (rice; [10]) was 0 and the “Plant response rating, Rice” value (rice; [11]) was 0. For the same compound, the “Rice plant response rating” value (rice; [12]) was 0, the “Barnyardgrass plant response rating” value (bamyardgrass; [9]) was 6 and the “Barnyardgrass plant response rating” value (bamyardgrass; [10]) was 0. The “Plant response rating, Barnyardgrass” value (bamyardgrass; [11]) was 7, the “Barnyardgrass plant response rating” value (bamyardgrass; Rate 500 g/ha, listed under Postemergence (flood test species), scale 0 to 10, 0 no effect, 10 complete control) was 9 and the “Sugarbeets plant response rating” value (sugar beet; [1]) was 0. For the same compound, the “Sugarbeets plant response rating” value (sugar beet; [2]) was 0, the “Sugarbeets plant response rating (0 to 10 scale)” value (sugar beet; [3]) was 0 and the “Sugarbeets plant response rating” value (sugar beet; [4]) was 0. The “Sugarbeets plant response rating” value (sugar beet; [5]) was 3, the “Sugarbeets plant response rating” value (sugar beet; [6]) was 0 and the “Plant response rating, Sugarbeets” value (sugar beet; [7]) was 0. The “Sugarbeets plant response rating” value (sugar beet; [8]) was 0, the “Ducksalad plant response rating” value (duck salad; [9]) was 0 and the “Ducksalad plant response rating” value (duck salad; [10]) was 0. The “Plant response rating, Ducksalad” value (duck salad; [11]) was 0, the “Ducksalad plant response rating” value (duck salad; [12]) was 2 and the “Soybean plant response rating” value (soybean; [1]) was 3. For the same compound, the “Soybean plant response rating” value (soybean; [2]) was 0, the “Soybean plant response rating (0 to 10 scale)” value (soybean; [3]) was 0 and the “Soybean plant response rating” value (soybean; [4]) was 0. The “Soybean plant response rating” value (soybean; [5]) was 0, the “Soybean plant response rating” value (soybean; [6]) was 3 and the “Plant response rating, Soybean” value (soybean; [7]) was 4. For the same compound, the “Soybean plant response rating” value (soybean; [8]) was 5, the “Velvetleaf plant response rating” value (velvetleaf; [1]) was 0 and the “Velvetleaf plant response rating” value (velvetleaf; [2]) was 0. For the same compound, the “Velvetleaf plant response rating (0 to 10 scale)” value (velvetleaf; [3]) was 0, the “Velvetleaf plant response rating” value (velvetleaf; [4]) was 0 and the “Velvetleaf plant response rating” value (velvetleaf; [5]) was 5. For the same compound, the “Velvetleaf plant response rating” value (velvetleaf; [6]) was 0, the “Plant response rating, Velvetleaf” value (velvetleaf; [7]) was 0 and the “Velvetleaf plant response rating” value (velvetleaf; [8]) was 2. For the same compound, the “Wheat plant response rating” value (wheat; [1]) was 0, the “Wheat plant response rating” value (wheat; [2]) was 0 and the “Wheat plant response rating (0 to 10 scale)” value (wheat; [3]) was 0. For the same compound, the “Wheat plant response rating” value (wheat; [4]) was 0, the “Wheat plant response rating” value (wheat; [5]) was 0 and the “Wheat plant response rating” value (wheat; [6]) was 0. For the same compound, the “Plant response rating, Wheat” value (wheat; [7]) was 0, the “Wheat plant response rating” value (wheat; [8]) was 0 and the “Corn plant response rating” value (corn; [1]) was 0. For the same compound, the “Corn plant response rating” value (corn; [2]) was 0, the “Corn plant response rating (0 to 10 scale)” value (corn; [3]) was 0 and the “Corn plant response rating” value (corn; [4]) was 0. For the same compound, the “Corn plant response rating” value (corn; [5]) was 0, the “Corn plant response rating” value (corn; [6]) was 0 and the “Plant response rating, Corn” value (corn; [7]) was 0. The “Corn plant response rating” value (corn; [8]) was 0.
